Data as given in the supplement of paper PMC10307832.

Tests used:
Test in all cases: relative viability (nuclei count vs DMSO), 5 days (fraction); higher = more cells survive
Serdemetan + AZD7762 = compound: c1ccc2c(CCNc3ccc(Nc4ccncc4)cc3)c[nH]c2c1 [Serdemetan] + NC(=O)Nc1cc(-c2cccc(F)c2)sc1C(=O)N[C@H]1CCCNC1 [AZD7762] (partner 0.2 µM)
Method in brief: (§1)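 Relative viability equals treated-well nuclei counts divided by vehicle-well nuclei counts. Counts came from 4× images of lung cancer cell lines grown in 1536-well plates for 5 days after pin-tool dosing on the day after seeding. Dosing used one drug alone or a fixed anchor-drug dose plus five library-drug doses (not always all listed) in √10 steps, and values are medians of duplicate plates.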

Serdemetan + OSI-027 = compound: c1ccc2c(CCNc3ccc(Nc4ccncc4)cc3)c[nH]c2c1 [Serdemetan] + COc1cccc2cc(-c3nc([C@H]4CC[C@H](C(=O)O)CC4)n4ncnc(N)c34)[nH]c12 [OSI-027] (partner 0.5 µM)
Method in brief: as §1

Selisistat + Lapatinib = compound: C1CC(C2=C(C1)C3=C(N2)C=CC(=C3)Cl)C(=O)N [Selisistat] + CS(=O)(=O)CCNCc1ccc(-c2ccc3ncnc(Nc4ccc(OCc5cccc(F)c5)c(Cl)c4)c3c2)o1 [Lapatinib] (partner 2 µM)
Method in brief: as §1

Selisistat + Foretinib = compound: C1CC(C2=C(C1)C3=C(N2)C=CC(=C3)Cl)C(=O)N [Selisistat] + COc1cc2c(Oc3ccc(NC(=O)C4(C(=O)Nc5ccc(F)cc5)CC4)cc3F)ccnc2cc1OCCCN1CCOCC1 [Foretinib] (partner 0.25 µM)
Method in brief: as §1

Row | Cell Line | relative viability (Serdemetan + AZD7762; first compound 0.04 µM) | relative viability (Serdemetan + AZD7762; first compound 0.1265 µM) | relative viability (Serdemetan + AZD7762; first compound 0.4 µM) | relative viability (Serdemetan + AZD7762; first compound 1.265 µM) | relative viability (Serdemetan + AZD7762; first compound 4 µM) | relative viability (Serdemetan + OSI-027; first compound 0.04 µM) | relative viability (Serdemetan + OSI-027; first compound 0.1265 µM) | relative viability (Serdemetan + OSI-027; first compound 0.4 µM) | relative viability (Serdemetan + OSI-027; first compound 4 µM) | relative viability (Selisistat + Lapatinib; first compound 0.4 µM) | relative viability (Selisistat + Lapatinib; first compound 1.265 µM) | relative viability (Selisistat + Lapatinib; first compound 4 µM) | relative viability (Selisistat + Lapatinib; first compound 12.65 µM) | relative viability (Selisistat + Lapatinib; first compound 40 µM) | relative viability (Selisistat + Foretinib; first compound 0.4 µM) | relative viability (Selisistat + Foretinib; first compound 1.265 µM) | relative viability (Selisistat + Foretinib; first compound 4 µM) | relative viability (Selisistat + Foretinib; first compound 12.65 µM) | relative viability (Selisistat + Foretinib; first compound 40 µM) | relative viability (Serdemetan + OSI-027; first compound 1.265 µM)
1 | 201T | 0.624 | 0.502 | 0.846 | 0.378 | 0.422 | 0.584 | 0.676 | 0.76 | 0.664 | 1.11 | 1.02 | 1.02 | 1.03 | 1.08 | 1.06 | 1.03 | 0.997 | 0.986 | 1.11 | –
2 | A549 | – | – | – | – | – | – | – | – | – | 1.05 | 0.937 | 1.12 | 0.974 | 0.95 | 1.04 | 0.826 | 0.945 | 0.917 | 0.985 | –
3 | A-427 | 0.759 | 0.671 | 0.664 | 0.538 | 0.495 | 0.526 | 0.509 | 0.539 | 0.36 | 1.03 | 1.02 | 0.98 | 0.879 | 1.12 | 1.02 | 0.976 | 1.02 | 1.12 | 0.984 | 0.455
4 | ABC-1 | 0.971 | 0.67 | 0.722 | – | 0.866 | 0.459 | 0.488 | 0.486 | 0.265 | 1.03 | 1.12 | 1.19 | 0.924 | 1.24 | 0.927 | 1.04 | 0.929 | 1.08 | 1.16 | 0.296
5 | BEN | 0.75 | 0.545 | 0.662 | 0.556 | 0.641 | 0.307 | 0.292 | 0.272 | 0.286 | 0.677 | 0.683 | 0.471 | 0.603 | 0.548 | 0.575 | 0.553 | 0.373 | 0.558 | 0.468 | –
6 | CAL-12T | 0.557 | 0.609 | 0.555 | 0.547 | 0.599 | 0.827 | 0.638 | 0.653 | 0.518 | 0.628 | 0.704 | – | 0.627 | 0.646 | 1.12 | 1 | 1 | 1.03 | 1.03 | 0.579
7 | COR-L23 | – | – | – | – | – | 0.796 | 0.712 | 0.799 | 0.744 | 0.969 | 1.03 | 0.959 | 0.935 | 0.799 | 1.08 | 0.981 | 1.04 | 1.03 | 0.996 | 0.658
8 | COR-L 105 | – | – | – | – | – | 0.749 | 0.649 | 0.452 | 0.71 | 0.298 | 0.338 | 0.371 | 0.378 | 0.31 | 0.984 | 1.15 | – | 1.1 | 1.14 | 0.722
9 | Calu-6 | – | – | – | – | – | – | – | – | – | 1.06 | 1.09 | 1.02 | 0.949 | 0.895 | 0.932 | 0.812 | 0.814 | 0.853 | 0.84 | –
10 | ChaGo-K-1 | 0.876 | 0.801 | 0.75 | 0.507 | 0.545 | 0.546 | 0.611 | 0.539 | 0.367 | – | – | – | – | – | 0.927 | 0.896 | 0.922 | 0.857 | 0.843 | 0.33
11 | EBC-1 | – | – | – | – | – | – | – | – | – | 0.256 | 0.208 | 0.224 | 0.243 | 0.244 | 0.111 | 0.0934 | 0.0874 | 0.0996 | 0.104 | –
12 | EKVX | 0.808 | 0.746 | – | – | 0.649 | 0.731 | 0.708 | 0.671 | 0.588 | 0.213 | 0.243 | 0.185 | 0.252 | 0.215 | 0.808 | 0.83 | 0.595 | 0.866 | 0.867 | –
13 | EMC-BAC-2 | 1.08 | 1.1 | 1.07 | 0.955 | 0.827 | 0.368 | 0.383 | 0.392 | 0.355 | 0.869 | 0.875 | 0.848 | 0.894 | 0.848 | 1.03 | 0.97 | 0.962 | 1.11 | 0.842 | 0.268
14 | EPLC-272H | 0.245 | 0.217 | 0.221 | 0.221 | 0.215 | 0.285 | 0.355 | 0.296 | 0.272 | 0.761 | 0.996 | – | 0.955 | 0.915 | 0.849 | 0.662 | – | 0.566 | 0.631 | 0.248
15 | HCC-44 | 0.921 | 1.01 | 0.994 | 0.936 | 0.934 | 0.482 | 0.498 | 0.598 | 0.452 | 0.983 | 1.16 | 1.01 | 1.02 | 1.13 | – | – | – | – | – | 0.429
16 | IA-LM | – | – | – | – | – | – | – | – | – | 0.723 | 0.931 | 0.817 | – | 0.894 | 1.21 | 1.07 | 1.19 | 0.902 | 1.19 | –
17 | LCLC-103H | 0.788 | 0.79 | 0.763 | 0.759 | 0.812 | 0.431 | 0.551 | 0.479 | 0.406 | – | – | – | – | – | 0.691 | 0.851 | 0.748 | 0.683 | 0.805 | 0.537
